Source: PubChem BioAssay AID588680 (Southern Research Specialized Biocontainment Screening …, 2011)
Activity calls are given as the source filed them.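 The calls were made as follows: active = inhibition of 30% or more at any tested concentration; inactive = the rest.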

Biological target: M1-family alanyl aminopeptidase (PfM1AAP), Plasmodium falciparum 3D7
Assay: PfM1AAP enzyme inhibition, dose response, selectivity assay for PfM18AAP inhibitor project, biochemical, QFRET, H-Leu-NHMec substrate (AID 588680)
Conditions: recombinant PfM1AAP, H-Leu-NHMec fluorogenic cleavage

| Structure (SMILES) | inhibition (at 100 µM (top of the series)) | IC50 [µM] | also measured |
| --- | --- | --- | --- |
| CCC(C)C(=O)Nc1ccccc1O (stereo not drawn) | inactive |  |  |
| O=C1OCCN1CCc1nc(-c2ccc(O)c(O)c2)cs1 |  | 37.7 |  |
| COc1ccc(CCN2CCN(C)CC2)cc1OC | inactive |  |  |
| CN(CCc1ccc(O)c(O)c1)c1ccnc2ccccc12 |  | 19.7 |  |
| COc1ccc(CCN(C)c2ccncc2)cc1OC | inactive |  |  |
| Cc1ccc(-c2nc(-c3ccc(O)c(O)c3)cs2)cc1 |  | 37.1 |  |
| COc1ccc(CC(=O)O)cc1OC | inactive |  |  |
| Nc1cc(C(=O)c2ccccc2)ccc1O |  | 40.3 |  |
| O=S1(=O)c2ccccc2-c2cc(-c3nc(-c4ccc(O)c(O)c4)[nH]c3-c3ccccc3)ccc21 |  | 39.9 |  |
| COc1cccc(-c2nc(-c3ccc(OC)c(OC)c3)cs2)c1 | inactive |  |  |
| O=C(O)CCCCNc1c2ccccc2nc2ccccc12 |  |  | inhibition (at 50 µM (top of the series)): inactive |
| O=C(c1ccco1)N1CCN(Cc2cc(=O)c(O)c[nH]2)CC1 | inactive |  |  |
| Oc1ccc(-c2csc(Cc3cc4ccccc4[nH]3)n2)cc1O |  | 19.9 |  |
| COc1ccc(-c2csc(-c3ccccc3OC)n2)cc1OC | inactive |  |  |
| O=C(O)CCCNc1c2ccccc2nc2ccccc12 |  |  | inhibition (at 50 µM (top of the series)): inactive |
| Oc1ccc(CCNC(c2ccccc2)c2ccccc2)cc1O |  | 55.1 |  |
| Oc1ccc(CCNc2cccc3ccccc23)cc1O |  | 29.9 |  |
| Cc1c(-c2ccccc2)[nH]c(-c2ccc(O)c(O)c2)[n+]1O |  | 54.3 |  |
| CCC(C)C(=O)Nc1ccccc1N (stereo not drawn) | inactive |  |  |
| O=C1c2ccc3c4c(ccc(c24)C(=O)N1O)CC3 |  | 76.7 |  |

| Structure (SMILES) | inhibition (at 100 µM (top of the series)) | IC50 [µM] | also measured |
| --- | --- | --- | --- |
| COc1ccc(CCNC2CCN(C)CC2)cc1OC | inactive |  |  |
| CN(CCc1ccc(O)c(O)c1)c1ccncc1 |  | 45.2 |  |
| CCOc1cccc(-c2nc(-c3ccc(O)c(O)c3)cs2)c1 |  | 40 |  |
| COc1ccc(CCNc2ccncc2)cc1OC | inactive |  |  |
| COc1ccc(CCN2CCc3ccccc3C2)cc1OC | inactive |  |  |
| CCC(C)c1ccc(N)c(O)c1 (stereo not drawn) |  | 42.2 |  |
| O=C(c1ccco1)N1CCN(Cc2cc(=O)c(O)co2)CC1 | inactive |  |  |
| Cc1nc(NCCc2ccc(O)c(O)c2)c2c3c(sc2n1)CCC3 |  | 40 |  |
| O=c1ccc2cc(O)c(O)cc2o1 |  | 48.2 |  |
| O=c1cc(CO)oc(CN2CCCCC2)c1O | inactive |  |  |
| CC(C)(C)C(=O)OCc1nc(-c2ccc(O)c(O)c2)cs1 |  | 41.2 |  |
| Oc1ccc(CCNc2ccc3ccccc3c2)cc1O |  | 34.6 |  |
| COc1ccc(CCNC2CCN(Cc3ccccc3)CC2)cc1OC | inactive |  |  |
| Oc1ccc(CCN2CCc3ccccc3C2)cc1O |  | 77 |  |
| O=c1cc(CN2CCN(Cc3ccccc3)CC2)c2ccc(O)c(O)c2o1 |  | 90.5 |  |
| COc1ccc(CCN(C)CCc2ccccc2)cc1OC | inactive |  |  |
| Oc1ccc(CCNc2c3c(nc4ccccc24)CCCC3)cc1O |  | 35 |  |
| COc1ccc(CCC(=O)O)cc1OC | inactive |  |  |
| Oc1ccc(CCNc2cncc3ccccc23)cc1O |  | 35.7 |  |

Continued, in another order:

| inhibition (at 100 µM (top of the series)) | IC50 [µM] | Structure (SMILES) | also measured |
| --- | --- | --- | --- |
| inactive |  | Oc1ccc(CNc2c3ccccc3nc3ccccc23)cc1O |  |
| inactive |  | COc1ccc(CCCNc2c3ccccc3nc3ccccc23)cc1OC |  |
| inactive |  | COc1ccc(CCN(C)c2c3ccccc3nc3ccccc23)cc1OC |  |
| inactive |  | COc1ccc(CNc2c3ccccc3nc3ccccc23)cc1OC |  |
| inactive |  | Cc1c(OCc2ccccc2)c(=O)ccn1CCNc1c2ccccc2nc2ccccc12 |  |
| inactive |  | NCCNc1c2ccccc2nc2ccccc12 |  |
| inactive |  | COc1ccc(CCNc2ccnc3ccccc23)cc1OC |  |
| inactive |  | COc1ccc(CCNc2cccc3ccccc23)cc1OC |  |
| inactive |  | COc1cccc(CCNc2c3ccccc3nc3ccccc23)c1 |  |
| inactive |  | COc1ccc(-c2csc(-c3ccccc3)n2)cc1OC |  |
| inactive |  | COc1ccc(CCNc2c3c(nc4ccccc24)CCCC3)cc1OC |  |
| inactive |  | COc1ccc(-c2nc(-c3ccccc3)c(-c3ccccc3)[nH]2)cc1OC |  |
| inactive |  | Oc1ccc(CCNc2c3ccccc3nc3ccccc23)cc1 |  |
| inactive |  | COc1ccc(CCNc2ccc3ccccc3c2)cc1OC |  |
| inactive |  | COc1ccc(CCN(C)c2ccnc3ccccc23)cc1OC |  |
| inactive |  | Cc1c(O)c(=O)ccn1CCNc1c2ccccc2nc2ccccc12 |  |
| inactive |  | O=c1ccn(CCNc2c3ccccc3nc3ccccc23)cc1OCc1ccccc1 |  |
| inactive |  | COc1ccc(CCNc2c3ccccc3nc3ccccc23)cc1OC |  |
| inactive |  | COc1ccc(CCNc2c3ccccc3nc3ccccc23)cc1 |  |
